The values below come from EP3858439A1 (priority 2020, dated 2021).

Counter-ions that a name gives are not always drawn.

For one assay, the target named is T1, human µ-opioid receptor (Homo sapiens, UniProt P35372).
T1 construct: expressed in transfected cells; host or cells: CHO-K1
T1 sequence (P35372 whole entry): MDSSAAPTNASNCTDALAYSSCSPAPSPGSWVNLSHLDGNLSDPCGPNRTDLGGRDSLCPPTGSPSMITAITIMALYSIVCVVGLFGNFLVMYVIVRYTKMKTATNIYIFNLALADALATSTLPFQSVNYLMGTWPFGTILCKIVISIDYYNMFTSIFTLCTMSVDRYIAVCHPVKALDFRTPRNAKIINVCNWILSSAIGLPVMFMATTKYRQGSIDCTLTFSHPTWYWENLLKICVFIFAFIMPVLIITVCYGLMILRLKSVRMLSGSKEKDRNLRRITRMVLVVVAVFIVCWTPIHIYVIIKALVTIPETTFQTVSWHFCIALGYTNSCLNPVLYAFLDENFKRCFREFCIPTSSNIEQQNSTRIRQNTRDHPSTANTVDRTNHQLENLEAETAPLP
Description: Binding assay to human µ-opioid receptor ([3H]-DAMGO displacement).
Conditions: not given
The procedure:
Binding assay to human µ-opioid receptor
Transfected CHO-K1 cell membranes (20 µg) were incubated with [^3H]-DAMGO (1 nM) in assay buffer containing Tris-HCl 50 mM, MgCl2 5 mM at pH 7.4.
Plates were incubated at 27 °C for 60 min. After the incubation period, the reaction mixture was then transferred to MultiScreen HTS, FC plates (Millipore), filtered and plates were washed 3 times with ice-cold 10 mM Tris-HCl (pH 7.4).
Filters were dried and counted at approximately 40% efficiency in a MicroBeta scintillation counter (Perkin-Elmer) using EcoScint liquid scintillation cocktail.
With `CN(C)C1(c2ccccc2)CCN(C(=O)[C@H](CN)C(C)(C)c2ccccc2)CC1` [Example 5, (S)-2-(aminomethyl)-1-(4-(dimethylamino)-4-phenylpiperidin-1-yl)-3-methyl-3-phenylbutan-1-one], the Ki was less than 100 nM. `CCNCC(Cc1ccccc1)C(=O)N1CCC(c2ccccc2)(N(C)C)CC1` (stereo not drawn) [Example 30, 2-benzyl-1-(4-(dimethylamino)-4-phenylpiperidin-1-yl)-3-(ethylamino)propan-1-one dihydrochloride]: the Ki was less than 100 nM. Consider `CNCC(Cc1ccccc1C#N)C(=O)N1CCC(c2ccccc2)(N(C)C)CC1` (stereo not drawn) [Example 55, 2-(3-(4-(dimethylamino)-4-phenylpiperidin-1-yl)-2-((methylamino)methyl)-3-oxopropyl)benzonitrile dihydrochloride], for which the Ki was 100 to 500 nM. Still for that read-out and setting: the result for `CNCC(Cc1ccccc1)C(=O)N1CCC(c2ccccc2)(N(C)C)CC1` (stereo not drawn) [Example 70, 2-benzyl-1-(4-(dimethylamino)-4-phenylpiperidin-1-yl)-3-(methylamino)propan-1-one] reads 100 to 500 nM; that for `CN(C)C1(c2ccccc2)CCN(C(=O)C(CN)Cc2ccccc2)CC1` (stereo not drawn) [Example 28, 3-amino-2-benzyl-1-(4-(dimethylamino)-4-phenylpiperidin-1-yl)propan-1-one dihydrochloride], less than 100 nM.

Take `Cc1ccccc1CC(CN)C(=O)N1CCC(c2ccccc2)(N(C)C)CC1` (stereo not drawn) [Example 75, 3-Amino-1-(4-(dimethylamino)-4-phenylpiperidin-1-yl)-2-(2-methylbenzyl)propan-1-one dihydrochloride]: the Ki was in the range of 100 to 500 nM. The molecule `CNC[C@@H](C(=O)N1CCC(c2ccccc2)(N(C)C)CC1)[C@H](C)c1ccccc1` [Example 85, (2S,3S)-1-(4-(Dimethylamino)-4-phenylpiperidin-1-yl)-2-((methylamino)methyl)-3-phenylbutan-1-one] yielded a Ki of 100 to 500 nM. On to `CNCCC(Cc1ccccc1)C(=O)N1CCC(c2ccccc2)(N(C)C)CC1` (stereo not drawn) [Example 31, 2-benzyl-1-(4-(dimethylamino)-4-phenylpiperidin-1-yl)-4-(methylamino)butan-1-one dihydrochloride], for which the Ki lay in the range of 100 to 500 nM. As to `CNC[C@H](Cc1ccccc1)C(=O)N1CCC(c2ccccc2)(N(C)C)CC1` [Example 79, (S)-2-Benzyl-1-(4-(dimethylamino)-4-phenylpiperidin-1-yl)-3-(methylamino)propan-1-one dihydrochloride], the Ki was less than 100 nM.

In turn, `CNCC(Cc1ccccc1F)C(=O)N1CCC(c2ccccc2)(N(C)C)CC1` (stereo not drawn) [Example 57, 1-(4-(dimethylamino)-4-phenylpiperidin-1-yl)-2-(2-fluorobenzyl)-3-(methylamino)propan-1-one dihydrochloride] gave a Ki of less than 100 nM. In turn, `CNC1(c2ccccc2)CCN(C(=O)[C@H](CN)[C@@H](C)c2ccccc2)CC1` [Example 9, (2S,3R)-2-(aminomethyl)-1-(4-(methylamino)-4-phenylpiperidin-1-yl)-3-phenylbutan-1-one] displayed a Ki of less than 100 nM. Still for that read-out and setting: the result for `CN(C)C1(c2ccccc2)CCN(C(=O)[C@@H](CN)[C@H]2CCCc3ccccc32)CC1` (racemic) [Example 78, (RS)-3-amino-1-(4-(dimethylamino)-4-phenylpiperidin-1-yl)-2-((RS)-1,2,3,4-tetrahydronaphthalen-1-yl)propan-1-one] reads less than 100 nM; that for `CN(C)C1(c2ccccc2)CCN(C(=O)[C@@H](CN)[C@@H]2CCCc3ccccc32)CC1` (racemic) [Example 77, (RS)-3-Amino-1-(4-(dimethylamino)-4-phenylpiperidin-1-yl)-2-((SR)-1,2,3,4-tetrahydronaphthalen-1-yl)propan-1-one], less than 100 nM. Still for that read-out and setting: next, `CNCC(Cc1ccccc1)C(=O)N1CCC(c2cccc(O)c2)(N(C)C)CC1` (stereo not drawn) [Example 34, 2-benzyl-1-(4-(dimethylamino)-4-(3-hydroxyphenyl)piperidin-1-yl)-3-(methylamino)propan-1-one dihydrochloride]: less than 100 nM.

The same assay, now with this note: Table 2; transfected CHO-K1 cell membranes, [3H]-DAMGO 1 nM, 60 min at 27 °C; read-out: Binding µ.
For `CNC[C@H](C(=O)N1CCC(c2ccccc2)(N(C)C)CC1)[C@@H](C)c1ccccc1` [Example 86, (2R,3R)-1-(4-(dimethylamino)-4-phenylpiperidin-1-yl)-2-((methylamino)methyl)-3-phenylbutan-1-one], the Ki is less than 100 nM.

Turning to `CC[C@@H](c1ccccc1)[C@@H](CNC)C(=O)N1CC(c2ccccc2)(N(C)C)C1` [Example 19, (2S,3R)-1-(3-(dimethylamino)-3-phenylazetidin-1-yl)-2-((methylamino)methyl)-3-phenylpentan-1-one dihydrochloride], the Ki is more than 500 nM. Still for that read-out and setting: next, `CC[C@@H](c1ccccc1)[C@@H](CNC)C(=O)N1CCC(NC)(c2ccc(OC)cc2)CC1` [Example 22, (2S,3R)-1-(4-(4-methoxyphenyl)-4-(methylamino)piperidin-1-yl)-2-((methylamino)methyl)-3-phenylpentan-1-one dihydrochloride]: less than 100 nM; `CC[C@@H](c1ccccc1)[C@@H](CNC)C(=O)N1CCC(NC)(c2ccc(F)cc2)CC1` [Example 65, (2S,3R)-1-(4-(4-fluorophenyl)-4-(methylamino)piperidin-1-yl)-2-((methylamino)methyl)-3-phenylpentan-1-one]: less than 100 nM; `CNC[C@@H](C(=O)N1CCC(c2cccc(O)c2)(N(C)C)CC1)[C@@H](C)c1ccccc1` [Example 16, (2S,3R)-1-(4-(dimethylamino)-4-(3-hydroxyphenyl)piperidin-1-yl)-2-((methylamino)methyl)-3-phenylbutan-1-one dihydrochloride]: less than 100 nM.

On to `CNC[C@@H](C(=O)N1CCC(c2cccc(F)c2)(N(C)C)CC1)[C@@H](C)c1ccccc1` [Example 3, (2S,3R)-1-(4-(dimethylamino)-4-(3-fluorophenyl)piperidin-1-yl)-2-((methylamino)methyl)-3-phenylbutan-1-one], for which the Ki is less than 100 nM. With `CC[C@@H](c1ccccc1)[C@@H](CN)C(=O)N1CCC(c2ccccc2)(N(C)C)CC1` [Example 8, (2S,3R)-2-(aminomethyl)-1-(4-(dimethylamino)-4-phenylpiperidin-1-yl)-3-phenylpentan-1-one dihydrochloride], the Ki is less than 100 nM.

For `CC[C@@H](c1cccc(Cl)c1)[C@@H](CNC)C(=O)N1CCC(NC)(c2ccc(F)cc2)CC1` [Example 69, (2S,3R)-3-(3-chlorophenyl)-1-(4-(4-fluorophenyl)-4-(methylamino)piperidin-1-yl)-2-((methylamino)methyl)pentan-1-one], the Ki was less than 100 nM. `CNC[C@@H](C(=O)N1CCC(c2ccccc2)(N(C)C)CC1)[C@@H](C)c1cccc(F)c1` [Example 15, (2S,3R)-1-(4-(dimethylamino)-4-phenylpiperidin-1-yl)-3-(3-fluorophenyl)-2-((methylamino)methyl)butan-1-one]: the Ki was less than 100 nM. With `CC[C@@H](c1ccccc1)[C@@H](CN)C(=O)N1CCC(NC)(c2ccccc2)CC1` [Example 6, (2S,3R)-2-(aminomethyl)-1-(4-(methylamino)-4-phenylpiperidin-1-yl)-3-phenylpentan-1-one dihydrochloride], the Ki was less than 100 nM.

As to `CN(C)C1(c2cccc(O)c2)CCN(C(=O)C2NCCc3ccccc32)CC1` (stereo not drawn) [Example 35, (4-(dimethylamino)-4-(3-hydroxyphenyl)piperidin-1-yl)(1,2,3,4-tetrahydroisoquinolin-1-yl)methanone dihydrochloride], the Ki was less than 100 nM. `C[C@@H](N)[C@@H](Cc1ccccc1)C(=O)N1CCC(c2ccccc2)(N(C)C)CC1` [Example 49, (2R,3R)-3-amino-2-benzyl-1-(4-(dimethylamino)-4-phenylpiperidin-1-yl)butan-1-one dihydrochloride]: the Ki lay in the range of 100 to 500 nM. On to `CC[C@@H](c1cccc(F)c1)[C@@H](CNC)C(=O)N1CCC(NC)(c2ccccc2)CC1` [Example 20, (2S,3R)-3-(3-fluorophenyl)-1-(4-(methylamino)-4-phenylpiperidin-1-yl)-2-((methylamino)methyl)pentan-1-one], for which the Ki was less than 100 nM.

Take `CNCC(Cc1ccccc1)C(=O)N1CCC(c2cccc(OC)c2)(N(C)C)CC1` (stereo not drawn) [Example 41, 2-benzyl-1-(4-(dimethylamino)-4-(3-methoxyphenyl)piperidin-1-yl)-3-(methylamino)propan-1-one dihydrochloride]: the Ki is less than 100 nM. For the molecule `CC[C@@H](c1cccc(Cl)c1)[C@@H](CN)C(=O)N1CCC(c2ccccc2)(N(C)C)CC1` [Example 66, (2S,3R)-2-(aminomethyl)-3-(3-chlorophenyl)-1-(4-(dimethylamino)-4-phenylpiperidin-1-yl)pentan-1-one], the Ki is less than 100 nM. With `CC[C@@H](c1cccc(F)c1)[C@@H](CN)C(=O)N1CCC(NC)(c2ccccc2)CC1` [Example 11, (2S,3R)-2-(aminomethyl)-3-(3-fluorophenyl)-1-(4-(methylamino)-4-phenylpiperidin-1-yl)pentan-1-one], the Ki was less than 100 nM. Turning to `C[C@H](N)[C@H](Cc1ccccc1)C(=O)N1CCC(c2ccccc2)(N(C)C)CC1` [Example 48, (2S,3S)-3-amino-2-benzyl-1-(4-(dimethylamino)-4-phenylpiperidin-1-yl)butan-1-one dihydrochloride], the Ki was less than 100 nM. As for `CC[C@@H](c1ccccc1)[C@@H](CN)C(=O)N1CC(c2ccccc2)(N(C)C)C1` [Example 10, (2S,3R)-2-(aminomethyl)-1-(3-(dimethylamino)-3-phenylazetidin-1-yl)-3-phenylpentan-1-one], the Ki was more than 500 nM.

With `CC[C@@H](c1ccccc1)[C@@H](CNC)C(=O)N1CCC(NC)(c2ccccc2)CC1` [Example 17, (2S,3R)-1-(4-(methylamino)-4-phenylpiperidin-1-yl)-2-((methylamino)methyl)-3-phenylpentan-1-one dihydrochloride], the Ki is less than 100 nM.
